Test results: ChEMBL document CHEMBL1201862, “PubChem BioAssay data set” (2004)
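Test compounds were applied to cells in 96-well plates for 48 hours at 5 doses. The concentration for 50% growth inhibition is given as GI50.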 Calls of active or inactive are those of the source. No stated cut-off is given here; in the data, active = GI50 up to about 1.1 µM and inactive = higher.

How the values were obtained:
Experiment in all cases: NCI tumour cell line growth inhibition, 48 h
786-0 = system: 786-0
BT-549 = system: BT-549
HCT-15 = system: HCT-15
HT-29 = system: HT-29
Hs-578T = system: Hs-578T
IGROV-1 = system: IGROV-1
MCF7 = system: MCF7
MDA-MB-231 = system: MDA-MB-231
OVCAR-4 = system: OVCAR-4
OVCAR-5 = system: OVCAR-5
PC-3 = system: PC-3
RPMI-8226 = system: RPMI-8226
RXF 393 = system: RXF 393
SF-268 = system: SF-268
SK-MEL-2 = system: SK-MEL-2
SK-MEL-5 = system: SK-MEL-5
SR = system: SR
TK-10 = system: TK-10
UACC-62 = system: UACC-62
UO-31 = system: UO-31

Compound	GI50 (786-0)	GI50 (BT-549)	GI50 (HCT-15)	GI50 (HT-29)	GI50 (Hs-578T)	GI50 (IGROV-1)	GI50 (MCF7)	GI50 (MDA-MB-231)	GI50 (OVCAR-4)	GI50 (OVCAR-5)	GI50 (PC-3)	GI50 (RPMI-8226)	GI50 (RXF 393)	GI50 (SF-268)	GI50 (SK-MEL-2)	GI50 (SK-MEL-5)	GI50 (SR)	GI50 (TK-10)	GI50 (UACC-62)	GI50 (UO-31)
O=[N+]([O-])c1ccc2c(/N=N/c3c(O)ccc4ccccc34)c(O)cc(S(=O)(=O)O)c2c1	11.7 µM (inactive)	26.9 µM (inactive)	4.62 µM	25.4 µM (inactive)	> 50 µM (inactive)	4.89 µM (inactive)	49.9 µM (inactive)	18 µM (inactive)	35.2 µM (inactive)	8.34 µM (inactive)	6.98 µM (inactive)	8.26 µM (inactive)	14.8 µM (inactive)	7.31 µM (inactive)	14.2 µM (inactive)	11.2 µM (inactive)	26.2 µM (inactive)	37.1 µM (inactive)	2.51 µM (inactive)	2.45 µM (inactive)
CCN(CC)CCOc1ccc(N2Cc3ccccc3C2=O)cc1	> 10 µM (inactive)	> 10 µM (inactive)	> 10 µM	> 10 µM (inactive)	> 10 µM (inactive)	> 10 µM (inactive)	> 10 µM (inactive)	> 10 µM (inactive)	> 10 µM (inactive)	> 10 µM (inactive)	> 10 µM (inactive)	> 10 µM (inactive)	> 10 µM (inactive)	> 10 µM (inactive)	> 10 µM (inactive)	> 10 µM (inactive)	> 10 µM (inactive)	> 10 µM (inactive)	> 10 µM (inactive)	> 10 µM (inactive)
COc1cccc([C@H]2C/C(=N\NC(=O)C(=O)N[C@@H](C)c3ccccc3)c3ccccc3N2)c1	0.0374 µM (active)	> 10 µM (inactive)	< 0.01 µM	> 10 µM (inactive)	0.0237 µM (active)	> 10 µM (inactive)	9.38 µM (inactive)	0.0923 µM (active)	7.48 µM (inactive)	16.8 µM (inactive)	0.0263 µM (active)	< 0.01 µM (active)	5.5 µM (inactive)	7.05 µM (inactive)	3.69 µM (inactive)	< 0.01 µM (active)	> 10 µM (inactive)	> 10 µM (inactive)	< 0.01 µM (active)	0.0378 µM (active)
O=C1NC(=S)N(c2cccc3ccccc23)C(=O)/C1=C/c1c[nH]c2ccccc12	1.71 µM (inactive)	1.79 µM (inactive)	1.67 µM	2.17 µM (inactive)	3.52 µM (inactive)	2.03 µM (inactive)	2.54 µM (inactive)	2.16 µM (inactive)	2.44 µM (inactive)	2.4 µM (inactive)	2.36 µM (inactive)	2.02 µM (inactive)	1.91 µM (inactive)	2.64 µM (inactive)	1.69 µM (inactive)	1.66 µM (inactive)	1.41 µM (inactive)	2.67 µM (inactive)	1.7 µM (inactive)	2.15 µM (inactive)
c1ccc(C[n+]2cccc(-c3cc4ccccc4[nH]3)c2)cc1	50.1 µM (inactive)	13.4 µM (inactive)	> 100 µM	32.5 µM (inactive)	20.2 µM (inactive)	19.4 µM (inactive)	27.6 µM (inactive)	37.2 µM (inactive)	40.2 µM (inactive)	42.7 µM (inactive)	39.2 µM (inactive)	17.6 µM (inactive)	> 100 µM (inactive)	17.6 µM (inactive)	16.6 µM (inactive)	10.6 µM (inactive)	32.1 µM (inactive)	32.7 µM (inactive)	15.7 µM (inactive)	> 100 µM (inactive)
CC[C@@]1(O)C(=O)OCc2c1cc1n(c2=O)Cc2cc3cc4c(cc3nc2-1)OCO4	< 0.001 µM (active)	0.0118 µM (active)	0.0181 µM	0.00472 µM (active)	0.244 µM (active)	0.00948 µM (active)	0.01 µM (active)	0.357 µM (active)	0.0507 µM (active)	0.0111 µM (active)	0.00746 µM (active)	0.0281 µM (active)	0.00221 µM (active)	< 0.001 µM (active)	0.0224 µM (active)	0.00169 µM (active)	< 0.001 µM (active)	0.502 µM (active)	< 0.001 µM (active)	0.00116 µM (active)
